In patent US8980845B2, “Biotechnological production of cyanophycin dipeptides” (Westfälische Wilhelms-Universität Münster, priority 2008, dated 2015):
Several values for one entry are separate records, joined by “and”; a condition that tells them apart may be missing. Equal values may be shown once. Entries after “also recorded” stand apart in the source; their conditions may differ. Read-outs that look alike come from different tables or passages of the source. Marks after values point to notes of the source that are not given here. Values belong to the molecule of their own block, whether it stands above or below them.

Tests used:
[1] = 250 mg/kg/day oral for seven days, five healthy subjects aged 20 to 35; cited from earlier work
[2] = test system: purified CphEal from P. alcaligenes strain DIP1; assay: Effect of group-specific inhibitors on purified CphEal, HPLC analysis of CGP degradation products; assay type: biochemical; settings: for HPLC analysis (Inhibition %) high inhibitor concentration: high concentration (mM): Leupeptin 0.01, EDTA 60, Pefabloc 80, PMSF 10, NBS 5; for HPLC analysis (Inhibition %) high inhibitor concentration / HPLC analysis (Inhibition %) low inhibitor concentration: 2 h at 30° C., refers to control without inhibitor; for HPLC analysis (Inhibition %) low inhibitor concentration: low concentration (mM): Leupeptin 0.001, EDTA 30, Pefabloc 8, PMSF 1, NBS 1
Experimental: (§1) To reveal the effect of enzyme inhibitors on the purified CphEal, 50 μl aliquots of the purified enzyme stalk solution were added to 450 μl of Na-phosphate buffer (50 mM) and incubated for 2 h at 30° C. in the presence of one of the following Group-specific inhibitors; Leupeptin (thiol-proteases), EDTA (metalloproteases), Pefabloc (serine-proteases), PMSF (serine-proteases) or N-bromosuccinimide (tryptophan residues).
(§2) To gain information on the catalytic mechanism of CphEal, inhibitor experiments were conducted employing different group-specific inhibitors (Table 1).

[3] = test system: purified CphEal from P. alcaligenes strain DIP1; assay: Effect of group-specific inhibitors on purified CphEal, activity on CGP-overlay agar plates; assay type: biochemical; settings: for Inhibition of CphEal (in words): assayed on CGP-overlay agar plates and by HPLC analysis
Experimental: as §1, §2

[4] = test system: Caco2 cells (human-colon epithelial adenocarcinoma cells); settings: Caco-2, 113 h
Experimental: (§3) A Dulbecco's Modified Eagle Medium (DMEM) containing 20% Fetal Calf Serum (FCS) and 1% of 2 mM Glutamine solution was used as cultivation medium. About 7000 Caco2 cells per well were disseminated in a 24-well plate and incubated at 37° C. under an atmosphere of 5% CO2 and about 98% humidity. The cells were checked microscopically on a daily basis until forming monolayer after nearly 50 h. […] A well line was supplied with fresh 700 μl of the incubation medium without the latter additives and was considered as control. Samples were taken after incubation periods of 0, 13, 22, 67 and 113 h and were analyzed by HPLC as described by Sallam and Steinbüchel (J. App. Microbiol. DOI: 10.1111/j.1365-2672.2009.04221.x) to determine the change of concentrations of the tested dipeptides and amino acids.

[5] = test system: Caco2 cells (human-colon epithelial adenocarcinoma cells); assay: Absorption of CGP dipeptides by Caco2-cell cultures; settings: after 113 h of incubation; medium with 350 μg/ml CGP dipeptides (90% Asp-Arg: 10% Asp-Lys)
Experimental: as §3

[6] = test system: P. alcaligenes strain DIP1; assay: Induction of CphEal production in cultures of strain DIP1; assay type: cell-based
Experimental: The activity of the cyanophycinase (CphEal) was inspected by formation of degradation halos on CGP-overlay agar plates by small aliquots of concentrated enzyme solutions, for this, 5 ml culture samples were centrifuged at 2800×g for 30 min (Megafuge 1.0 R, Heraeus Sepatech GmbH, Osterode, Germany) and 4 ml of the resulting supernatant were concentrated 100 folds by ultrafiltration. For the quantitative determination of the enzyme in culture samples, a photometric method was developed as follows; 2 μl of the concentrated culture supernatant were added to 1 ml of a CGP suspension (100 mg l^−1) and incubated at 30° C. for 30 min in a tube rotator (3 rpm, type 502 S, Watson-Marlow GmbH, Rommerskirchen, Germany). Finally, OD600 nm of samples was measured to indicate the decrease in CGP amount due to degradation; this in turn was used to indicate the concentration of CphEal in solutions through the respective calibration curve.
To conclude the optimum cultivation conditions for maximum production of CphEal by strain DIP1, cells were cultivated on different concentrations of citrate under optimum growth conditions, when cells reached the stationary phase; CphEal production was induced by the addition of 0.25 g CGP.
During the following 5 h, supernatant samples were concentrated (100 folds) and screened for degradation activity on CGP-overlay agar plates as well as photometrically.
All inductors were tested first at a concentration of 0.25 g l^−1 and CphEal production was assayed on CGP-overlay agar plates and also photometrically.

[7] = low dose intravenous (IV) infusion; cited from earlier work
CGP = settings: data from literature, cited from earlier work

Molecule: L-Arginine-L-Aspartate [arginine aspartate]
- Rise in GH during slow wave sleep [1]: 60%

Molecule: CC(=O)N[C@@H](CC(C)C)C(=O)N[C@@H](CC(C)C)C(=O)N[C@H](C=O)CCCNC(=N)N [Leupeptin]
- HPLC analysis (Inhibition %) high inhibitor concentration [2]: 39%
- HPLC analysis (Inhibition %) low inhibitor concentration [2]: 10%
- Formation of degradation halos by CphEal on CGP-overlay agar plates in presence of inhibitor [3]: no activity inhibition
- Formation of degradation halos by CphEal on CGP-overlay agar plates in presence of inhibitor ([3]; listed as leupeptin): not affected

Molecule: NCCCC[C@H](N)C(=O)O [free L-lysine, L-lysine]
- Absorption by Caco2 cells (HPLC analysis of the medium samples) [4]: 51%

Molecule: NCCCC[C@H](NC(=O)C[C@H](N)C(=O)O)C(=O)O [cyanophycin Asp-Lys dipeptides, β-aspartate-lysine]
- Absorption by Caco2 cells (HPLC analysis of the medium samples) [5]: 68%

Molecule: N[C@@H](CC(=O)O)C(=O)O [L-aspartic acid]
- CphEal production after induction in comparison to cultures induced with optimum CGP concentration (0.05 g l^−1) ([6]; 4 g l^−1 aspartate, 5 h): only the third
- Time after induction at which maximum CphEal production was obtained ([6]; at optimum inductor concentration): 5 h
- Inductor concentration giving maximum CphEal production ([6]; cultures of strain DIP1 under optimal production conditions): 4 g/L
- Induction of CphEal production ([6]; inductors tested at 0.25 g l^−1, CGP-overlay agar plates and photometrically): induced significant amounts

- Inhibition of the CGPase, HPLC analysis of samples treated with EDTA ([2]; stated to be due to precipitates during OPA-derivatization): about 75%
Molecule: O=C(O)CN(CCN(CC(=O)O)CC(=O)O)CC(=O)O [EDTA]
- HPLC analysis of inhibitor-treated samples (in words) [2]: showed inhibition
- HPLC analysis (Inhibition %) high inhibitor concentration [2]: 75^c %
- HPLC analysis (Inhibition %) low inhibitor concentration [2]: 65^c %
- Formation of degradation halos by CphEal on CGP-overlay agar plates in presence of inhibitor [3]: no activity inhibition; also recorded: not affected

Molecule: NC(N)=NCCC[C@H](NC(=O)C[C@H](N)C(=O)O)C(=O)O [cyanophycin Asp-Arg dipeptides, β-aspartate-arginine]
- Absorption by Caco2 cells (HPLC analysis of the medium samples) [5]: approximately 60%

Molecule: O=S(=O)(F)Cc1ccccc1 [PMSF, Phenylmethylsulfonylfluoride]
- HPLC analysis (Inhibition %) high inhibitor concentration [2]: 57%
- HPLC analysis (Inhibition %) low inhibitor concentration [2]: 0%
- Inhibition of CphEal (in words) [3]: largely inhibited; also recorded: strongly inhibited

Molecule: Cl.NCCc1ccc(S(=O)(=O)F)cc1 [Pefabloc ®, 4-(2-aminoethyl) benzensulfonylfluoride•HCl]
- HPLC analysis (Inhibition %) high inhibitor concentration [2]: 100%
- HPLC analysis (Inhibition %) low inhibitor concentration [2]: 91%
- Inhibition of CphEal (in words) ([3]; listed as Pefabloc): strongly inhibited
- Inhibition of CphEal (in words) ([3]; listed as Pefabloc®): largely inhibited

Molecule: O=C1CCC(=O)N1Br [NBS, N-bromosuccinimide]
- HPLC analysis (Inhibition %) high inhibitor concentration [2]: 100%
- HPLC analysis (Inhibition %) low inhibitor concentration [2]: 100%
- Inhibition of CphEal (in words) [3]: totally inhibited; also recorded: total inhibition

Molecule: N=C(N)NCCC[C@H](N)C(=O)O [free arginine, L-arginine]
- Absorption by Caco2 cells (HPLC analysis of the medium samples) [4]: 41%
- Serum GH levels [7]: significant increase

B1: CphB: intracellular cyanophycinase of Synechocystis sp. PCC 6803 (protein, UniProt P73832 2-271, looked up)
Cyanophycinase: PLSSQPAILIIGGAEDKVHGREILQTFWSRSGGNDAIIGIIPSASREPLLIGERYQTIFSDMGVKELKVLDIRDRAQGDDSGYRLFVEQCTGIFMTGGDQLRLCGLLADTPLMDRIRQRVHNGEISLAGTSAGAAVMGHHMIAGGSSGEWPNRALVDMAVGLGIVPEIVVDQHFHNRNRMARLLSAISTHPELLGLGIDEDTCAMFERDGSVKVIGQGTVSFVDARDMSYTNAALVGANAPLSLHNLRLNILVHGEVYHQVKQRAFPRVT
- Mechanism (CGP; cell wrapped: Exo-peptidase): Exo-
- CGP degradation products (CGP): β-Asp-Arg
- Inhibitors (CGP): PMSF, and 3,4-dichloro- and Pefabloc ®,
- Optimum pH range (CGP): 7-8^
- Optimum temperature (CGP): 35 °C
